Reference: paper PMC8709172, “High-Throughput Screening Campaign Identified a Potential Small Molecule RXFP3/4 Agonist” (Molecules, 2021)
Like-named read-outs stand apart in the source and are kept apart here.

Key:
[1] = target: T1, human RXFP3 (hRXFP3) (Homo sapiens, UniProt Q9NSD7); experiment: competition binding with europium-labelled H3 B1-22R on RXFP3 CHO-K1 cells; type: cell-based; conditions: 5 nM Eu-H3 B1-22R, one-site fit Ki, tracer Kd 26 nM; competitive
T1 sequence (Q9NSD7 1-469): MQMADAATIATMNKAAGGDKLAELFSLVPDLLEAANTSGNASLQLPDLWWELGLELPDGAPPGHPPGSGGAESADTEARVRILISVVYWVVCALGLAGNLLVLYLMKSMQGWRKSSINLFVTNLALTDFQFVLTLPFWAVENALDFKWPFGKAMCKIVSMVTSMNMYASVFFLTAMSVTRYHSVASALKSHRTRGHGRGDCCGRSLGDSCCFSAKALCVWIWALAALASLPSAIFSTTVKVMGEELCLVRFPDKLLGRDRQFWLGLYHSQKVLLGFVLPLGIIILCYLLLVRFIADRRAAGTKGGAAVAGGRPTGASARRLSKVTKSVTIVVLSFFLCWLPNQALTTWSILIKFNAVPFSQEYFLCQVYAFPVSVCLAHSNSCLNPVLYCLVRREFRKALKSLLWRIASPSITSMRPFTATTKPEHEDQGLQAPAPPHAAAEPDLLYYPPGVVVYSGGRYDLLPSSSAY

[2] = target: T1, human RXFP3 (hRXFP3); experiment: cAMP accumulation TR-FRET in hRXFP3-CHO cells; type: cell-based
[3] = target: human RXFP4 (hRXFP4) (Homo sapiens, UniProt Q8TDU9); experiment: cAMP accumulation TR-FRET in hRXFP4-CHO cells; type: cell-based
Chain of human RXFP4 (hRXFP4) (Q8TDU9 whole entry): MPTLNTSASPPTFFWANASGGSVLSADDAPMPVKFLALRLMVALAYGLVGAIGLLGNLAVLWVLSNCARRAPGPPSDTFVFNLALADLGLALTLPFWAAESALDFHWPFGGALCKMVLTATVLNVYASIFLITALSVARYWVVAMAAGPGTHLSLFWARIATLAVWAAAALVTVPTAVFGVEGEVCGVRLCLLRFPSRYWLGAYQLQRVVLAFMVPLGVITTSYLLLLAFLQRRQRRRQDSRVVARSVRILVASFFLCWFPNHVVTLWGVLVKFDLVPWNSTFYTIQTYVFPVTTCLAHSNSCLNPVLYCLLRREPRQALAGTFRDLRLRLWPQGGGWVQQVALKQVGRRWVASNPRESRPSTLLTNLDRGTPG

[4] = target: T1, human RXFP3 (hRXFP3); experiment: cell-based; design: species or system CHO-K1; Europium-labelled H3 B1-22R competition binding on CHO-K1 cells stably expressing RXFP3; conditions: vs 5 nM Eu-H3 B1-22R
Procedure: CHO-K1 cells stably transfected with RXFP3 were plated onto pre-coated poly-L-lysine 96-well plates for the binding assay performed using 5 nM europium (Eu)-H3 B1-22R as previously described with triplicate determinations within assay and a minimum of three independent experiments. Data are presented as means ± SEM. pKi values were calculated using one-site fit Ki and a Kd value of 26 nM for H3 B1-22R [47].

[5] = target: T1, human RXFP3 (hRXFP3); experiment: cell-based; design: TR-FRET inhibition of forskolin-stimulated cAMP accumulation, single-dose primary screen, percent of R3/I5 control; conditions: CHO; primary screen, relative to 5 nM R3/I5; read-out: % activation
Procedure: The HTS campaign was carried out in white 384-well plates by measuring the inhibition of forskolin-stimulated cAMP accumulation in hRXFP3-CHO cells. Briefly, the positive control (5 nM R3/I5) and negative control (1% DMSO) were located at the 64 wells of the outer four columns on both sides with 32 replicates, respectively. The individual screening compounds were loaded at the center twenty columns with an average final concentration of 10 μM in a single-dose format without replicates. Time-resolved fluorescence resonance energy transfer (TR-FRET) signals were read by an EnVision multilabel plate reader (PerkinElmer). Z’ factor, coefficient of variation (CV) and signal-to-background ratio (S/B) were calculated according to the literature. Positive control was regarded as 100% activation, while negative control represented no activation. Compounds showing greater than 50% activation were considered hits, and secondary screening using the same assay was performed to eliminate false positives. cAMP accumulation assay was performed in hRXFP3-CHO cells at a density of 5 × 10^5 cells/mL. […] Plates were incubated at RT for 60 min and the fluorescence intensity measured at 620 nm and 665 nm by an EnVision multilabel plate reader. […]

[6] = target: T1, human RXFP3 (hRXFP3); experiment: cell-based; design: HTS inhibition of forskolin-stimulated cAMP, TR-FRET; % activation relative to R3/I5; conditions: hRXFP3-CHO; primary screen, single dose; read-out: % activation
Procedure: The HTS campaign was carried out in white 384-well plates by measuring the inhibition of forskolin-stimulated cAMP accumulation in hRXFP3-CHO cells. Briefly, the positive control (5 nM R3/I5) and negative control (1% DMSO) were located at the 64 wells of the outer four columns on both sides with 32 replicates, respectively. The individual screening compounds were loaded at the center twenty columns with an average final concentration of 10 μM in a single-dose format without replicates. Time-resolved fluorescence resonance energy transfer (TR-FRET) signals were read by an EnVision multilabel plate reader (PerkinElmer). Z’ factor, coefficient of variation (CV) and signal-to-background ratio (S/B) were calculated according to the literature. Positive control was regarded as 100% activation, while negative control represented no activation. Compounds showing greater than 50% activation were considered hits, and secondary screening using the same assay was performed to eliminate false positives. cAMP accumulation assay was performed in hRXFP3-CHO cells at a density of 5 × 10^5 cells/mL. The cells were treated with different concentrations of compounds plus 25 μM forskolin and 500 μM IBMX for 30 min at room temperature (RT). cAMP-d2 conjugate and cryptate conjugate working solutions were then diluted and added to the plates separately. Plates were incubated at RT for 60 min and the fluorescence intensity measured at 620 nm and 665 nm by an EnVision multilabel plate reader. The parental CHO cells were applied to examine off-target effect, while hRXFP4-CHO cells were utilized for selectivity assessment.

| SMILES | activity at 10 µM [6] [%] | also measured |
| --- | --- | --- |
| CC(C)(CCc1ccc(NS(=O)(=O)c2ccccc2)cc1)NCC(O)COc1ccc(O)c(NS(C)(=O)=O)c1 (racemic) [WNN0109-C011] |  | pKi [1]: further confirmed the direct binding of WNN0109-C011 and its two enantiomers with RXFP3; EC50 [2]: 2510 nM; EC50 [3]: 33.9 µM; Ki [4]: 41.7 µM; activity at 10 µM [5]: 85% |
| CC(C)(CCc1ccc(NS(=O)(=O)c2ccccc2)cc1)NC[C@@H](O)COc1ccc(O)c(NS(C)(=O)=O)c1 [R-WNN0109-C011] |  | pKi [1]: further confirmed the direct binding of WNN0109-C011 and its two enantiomers with RXFP3; Ki [4]: 31.6 µM |
| CC(C)(CCc1ccc(NS(=O)(=O)c2ccccc2)cc1)NC[C@H](O)COc1ccc(O)c(NS(C)(=O)=O)c1 [S-WNN0109-C011] |  | pKi [1]: further confirmed the direct binding of WNN0109-C011 and its two enantiomers with RXFP3; Ki [4]: 91.2 µM |
| O=C(O)Cn1c(=O)c(=O)[nH]c2c(Br)cc(Br)cc21 [WNN0002-F006] | 73 |  |
| Nc1ccc2sc3[nH]c(=O)c(=O)[nH]c3c2c1 [WNN0003-B006] | 54 |  |
| O=c1[nH]c2scc(C3CCCCC3)c2[nH]c1=O [WNN0003-F007] | 51 |  |
| Cc1sc2[nH]c(=O)c(=O)[nH]c2c1C [WNN0003-G011] | 54 |  |
| Cc1csc2[nH]c(=O)c(=O)n(C)c12 [WNN0004-D007] | 57 |  |
| O=C1NCCCC1C1=NC(CO)(CO)CO1 (stereo not drawn) [WNN0027-E003] | 53 |  |
| CS/C(=N/C#N)Nc1ccc2c(c1)OCCO2 [WNN0027-G008] | 56 |  |
| O=C(CCCCN1CCCCC1)c1ccccc1 [WNN0028-D009] | 56 |  |
| O=C(O)C1CCCN(CCC=C2c3ccccc3CCc3cc(-c4ccccc4)ccc32)C1 (stereo not drawn) [WNN0063-E008] | 68 |  |
| O=C(O)C1CCN(CCC=C2c3ccccc3CCc3cc(-c4ccccc4)ccc32)CC1 [WNN0063-E009] | 130 |  |
| O=c1[nH]c2ccccc2n(C(c2ccccc2)c2ccccc2)c1=O [WNN0119-H005] | 82 |  |
| O=C(c1ccccc1O)N1CCc2nc3ncccc3cc2C1 [WNN0195-H002] | 65 |  |
| CSc1nccc(-c2ccc(Br)s2)n1 [WNN0196-B004] | 78 |  |
| C[N+](C)=c1ccc2nc3ccc(N)cc3sc-2c1 [WNN0314-F004] | 50 |  |
| CN(C)c1ccc2nc3ccc(=[N+](C)C)cc-3sc2c1 [WNN0314-G003] | 51 |  |
